# Source: PMC10283052, “Intranasal delivery of mitochondrial protein humanin rescues cell death and promotes mitochondrial function in Parkinson's disease” (Theranostics, 2023)
# Columns and labels:
# SH-SY5Y cells [1] = test: HN-induced intracellular humanin expression, western blot, SH-SY5Y; assay type: cell-based, human; conditions: HN treatment 24 h, several doses, basal humanin undetectable
# Procedure: The SH-SY5Y human neuroblastoma cell line and PC12 rat pheochromocytoma cell line were purchased from the Korean Cell Line Bank (Seoul, South Korea). Undifferentiated SH-SY5Y cells were grown in Dulbecco's modified Eagle's medium nutrient mixture F-12 (DMEM/F12; Thermo Fisher Scientific) supplemented with 10% FBS and 1% P/S. Undifferentiated PC12 cells were grown in DMEM (Thermo Fisher Scientific) supplemented with 5% FBS, 5% horse serum, and 1% P/S on poly-D-lysine (PDL, Sigma-Aldrich) plates.
# For HN treatment of cells, HN stock solution was first incubated at 37 ℃ with mild stirring for 0.5 h. The solution was then added to the culture medium to achieve a desirable final concentration as described above.
# (§1) Mouse brain tissue samples and cells were homogenized in radioimmunoprecipitation assay (RIPA) buffer (Cell Signaling, Danvers, MA, USA) in the presence of a protease and phosphatase inhibitor cocktail (Thermo Fisher Scientific). The samples were sonicated on ice, and the supernatant was collected after centrifugation at 4°C at 10,000 g for 5 min. The protein samples were loaded and separated using Tris-glycine SDS-PAGE. To detect the HN peptide, the proteins were separated into three layers of tricine SDS-PAGE, as previously described. […] The results were analyzed using the ImageJ densitometry system. […]
# SH-SY5Y cells [2] = test: Real-time qPCR of mitochondrial rRNA and humanin transcripts; assay type: cell-based, human
# Procedure: For real-time qPCR, total RNA was extracted using TRIzol reagent (Thermo Fisher Scientific). cDNA was synthesized using a cDNA synthesis kit (Bioneer Corporation), according to the manufacturer's protocol. The mRNA levels were analyzed in a LightCycler 96 (Roche, Basel, Switzerland) using SYBR Green I master mix and SensiFAST™ SYBR® No-ROX Kit (Bioline, Paris, France). B2M (beta-2-microglobulin) gene expression was used to normalize gene expression data. The primer sequences used in this experiment are in Table S2.
# [3] = tested on: mtDNA-depleted (Rho^0) SH-SY5Y cells; test: Humanin induction in mtDNA-depleted Rho0 cells (PCR, western blot); assay type: cell-based, human; conditions: Rho0 cells devoid of mtDNA; HN 20 μM, 24 h; conventional PCR and western blot
# Procedure: For generating SH-SY5Y Rho^0 cells depleted of mitochondrial DNA, we treated the cells with ethidium bromide (0.5 μg/ml) (Sigma-Aldrich) for 2 months as described previously. SH-SY5Y Rho^0 cells were grown in the same culture medium but supplemented with an additional 50 μg/ml of uridine and 100 μg/ml of pyruvate to support cell growth.
# as §1, with “described. The separated proteins were transferred to nitrocellulose membranes (GenDEPOT, Barker, TX, USA). The membranes were blocked for 0.5 h, followed by incubation with appropriate primary antibodies overnight at 4°C.” for “described.”
# The loss of mtDNA in SH-SY5Y Rho^0 cells was determined by standard PCR with three pairs of primers (Table S1), two specifically for mtDNA (mt-ND4, humanin) and one specifically for nuclear DNA (ATP5PB). […]
# [4] = tested on: differentiated PC12 cells exposed to MPP^+; test: Intracellular humanin in MPP+-exposed differentiated PC12 cells, western blot; assay type: cell-based, rat; conditions: HN treatment, MPP+ exposure
# Procedure: For neuronal differentiation of PC12 cells, the cells were grown in DMEM containing 1.5% horse serum, 1.5% FBS, 1% P/S, and 100 ng/mL nerve growth factor (NGF, Thermo Fisher Scientific) every 2 days. PC12 cells were differentiated for 7 days and used for subsequent experiments.
# as §1, with “described. The separated proteins were transferred to nitrocellulose membranes (GenDEPOT, Barker, TX, USA). The membranes were blocked for 0.5 h, followed by incubation with appropriate primary antibodies overnight at 4°C. The primary antibodies used were as follows: anti-tyrosine hydroxylase (Cat # P40101, Pel-Freez Biologicals), anti-HN (Cat # RA19000, Neuromics), anti-β-actin (Cat # GTX109639, GeneTex, Irvine, CA, USA), and anti-GAPDH (Cat # AM4300, Thermo Fisher Scientific).” for “described.”
# SH-SY5Y cells [5] = test: Mitochondrial membrane potential (TMRM) and mitochondrial ROS (MitoSOX); assay type: cell-based, human
# Procedure: The SH-SY5Y cells were cultured in 96-well plates for 24 h before treatment. At the indicated time points, the cellular medium was removed, and the cells were washed with PBS. Mitochondrial ROS levels were measured using MitoSOX Red (Thermo Fisher Scientific) as described previously. The cells were counterstained using Hoechst 33342 (Sigma-Aldrich). Fluorescence intensity was quantified using a Synergy H1 multimode microplate reader (BioTek, Winooski, VT, USA) according to the manufacturer's protocol.
# The cells were seeded in 96-well plates and treated as described above. To analyze the mitochondrial membrane potential, TMRM (Thermo Fisher Scientific) was used according to the manufacturer's instructions. The cells were counterstained using Hoechst 33342 (Sigma-Aldrich). Fluorescence intensity was assessed using a Synergy H1 multimode microplate reader or an LSR Fortessa cytometer at the Neuroscience Translational Research Solution Center.
substance,measurement,setting,value
"humanin (MAPRGFSCLLLLTSEIDLPVKRRA; Humanin; UniProt Q8IVG9 1-24, looked up) [HN, mitochondria-derived peptide encoded by the mitochondrial genome, synthesized by Fmoc-based SPPS at GL Biochem]",intracellular humanin expression,SH-SY5Y cells [1],induced its intracellular expression in a dose-dependent manner
same,transcript levels of regions across mitochondrial rRNA and humanin,"SH-SY5Y cells [2]; up to 24 h after HN treatment, slightly declined over time",significantly upregulated up to 24 h
same,transcript levels of regions across mitochondrial rRNA and humanin,SH-SY5Y cells [2]; within 3 h of HN treatment,significant upregulation
same,induction of intracellular humanin by HN peptide,[3],abolished
same,intracellular humanin,[4],upregulated intracellular humanin
same,FCCP-induced mitochondrial depolarization,"SH-SY5Y cells [5]; HN pre-treatment 24 h, 20 μM, FCCP 5 μM, 15 min, flow cytometry",effective in restoring
same,mitochondrial membrane potential (TMRM),"SH-SY5Y cells [5]; HN pre-treatment before MPP+, flow cytometry, normalized to Hoechst 33342",effectively inhibited reduction in mitochondrial potential
same,mitochondrial ROS production (MitoSOX),"SH-SY5Y cells [5]; HN pre-treatment before MPP+, normalized to Hoechst 33342",effectively inhibited
